Measurements from PubChem BioAssay AID1996.
Converted amounts (≈) assume the structure as drawn.

details: buffer; pH 7.4; 200.0 µM

Question: With `COc1ccc(Cl)cc1NC(=S)N1CCN(S(C)(=O)=O)CC1` as the compound, how does the solubility kinetic read?
Answer: > 54.6 µg/mL

Question: With `COc1ccc(CC(=O)Nc2ccc(N3CCCC3)c(C)c2)cc1` as the compound, how does the solubility kinetic read?
Answer: 8.9 µg/mL (≈ 27.4 µM)

Question: With `O=C(NCc1ccccc1Cl)c1cnccc1C(F)(F)F` as the compound, how does the solubility kinetic read?
Answer: > 47.2 µg/mL

Question: For `COc1cc(=O)[nH]c(SC(C)C(=O)Nc2cc(C)on2)n1` (stereo not given), which solubility kinetic is on record?
Answer: > 46.5 µg/mL

Question: For `O=[N+]([O-])c1ccc2nc(Cl)nc(-c3ccccc3)c2c1`, which solubility kinetic is on record?
Answer: 4.8 µg/mL (≈ 16.8 µM)

Question: For `Cc1cc(NC(=O)c2ccc(C)o2)no1`, which solubility kinetic is on record?
Answer: > 30.9 µg/mL

Question: With `O=C(COC(=O)C1CCC1)NC(=O)c1ccccc1` as the compound, how does the solubility kinetic read?
Answer: > 39.2 µg/mL

Question: Which solubility kinetic does the source give for `COC(=O)c1ccc(CN2C(=O)C3CCCCC3C2=O)o1` (stereo not given) here?
Answer: > 43.7 µg/mL

Question: Which solubility kinetic does the source give for `O=[N+]([O-])c1cc(CN2CCC(O)CC2)ccc1Cl` here?
Answer: 38.9 µg/mL (≈ 144 µM)

Question: Which solubility kinetic does the source give for `C=CCn1c(SCC(N)=O)nnc1-c1cnccn1` here?
Answer: > 41.4 µg/mL

Question: Which solubility kinetic does the source give for `CC1C(c2ccccc2)N(C)C(c2ccccc2)CC1(O)c1ccc(F)cc1` (stereo not given) here?
Answer: 5.7 µg/mL (≈ 15.2 µM)

Question: With `CCc1ccccc1Cn1c(=O)oc2cccnc21` as the compound, how does the solubility kinetic read?
Answer: > 38.1 µg/mL

Question: For `O=C(CNC(=O)c1ccc(Cl)cc1)NCc1ccccn1`, which solubility kinetic is on record?
Answer: > 45.6 µg/mL

Question: For `Cc1csc(NC(=O)c2cccnc2)n1`, which solubility kinetic is on record?
Answer: 32.5 µg/mL (≈ 148 µM)

Question: Which solubility kinetic does the source give for `COc1ccc(S(=O)(=O)n2ccnc2C)c(C)c1C` here?
Answer: > 42.1 µg/mL

Question: Which solubility kinetic does the source give for `CC(C)C(=O)Nc1c2c(nn1-c1ccc(F)cc1)CS(=O)(=O)C2` here?
Answer: > 50.6 µg/mL

Question: Which solubility kinetic does the source give for `Cc1cc(/C=C(\C#N)C(=O)O)c(C)n1CC1CCCO1` (stereo not given) here?
Answer: > 41.1 µg/mL

Question: For `COc1ccccc1OCCCC(=O)NC(C)c1ccccc1` (stereo not given), which solubility kinetic is on record?
Answer: > 47 µg/mL

Question: With `O=C(Cn1cnc2ccccc21)c1ccc(Br)cc1` as the compound, how does the solubility kinetic read?
Answer: 40 µg/mL (≈ 127 µM)

Question: For `O=C(COC(=O)c1ccccc1F)Nc1ccc(S(=O)(=O)N2CCOCC2)cc1`, which solubility kinetic is on record?
Answer: 38 µg/mL (≈ 90 µM)

Question: Which solubility kinetic does the source give for `Cc1cc(S(=O)(=O)Cc2noc(-c3c(C)noc3C)n2)c(C)cc1Cl` here?
Answer: < 0.3 µg/mL

Question: For `CC(=O)c1cccc(NS(=O)(=O)N2CCOCC2)c1`, which solubility kinetic is on record?
Answer: > 42.6 µg/mL

Question: Which solubility kinetic does the source give for `COC(=O)[C@H](CC(C)C)NC(=O)N1CCCCC1` here?
Answer: > 38.5 µg/mL

Question: For `CCc1ccccc1NC(=O)c1cc([N+](=O)[O-])ccc1N1CCOCC1`, which solubility kinetic is on record?
Answer: > 53.3 µg/mL

Question: Which solubility kinetic does the source give for `O=C(Nc1ccc(Cl)cc1)Nc1ccccn1` here?
Answer: 0.6 µg/mL (≈ 2.42 µM)

Question: Which solubility kinetic does the source give for `CCc1c(-c2ccccc2)[n+](=O)c2c(n1[O-])CCC2` here?
Answer: > 38.4 µg/mL

Question: Which solubility kinetic does the source give for `COc1ccccc1OCCCC(=O)NCc1ccco1` here?
Answer: > 43.4 µg/mL

Question: With `CN(C(=O)COC(=O)/C=C/c1ccccc1[N+](=O)[O-])c1ccccc1` as the compound, how does the solubility kinetic read?
Answer: 47.5 µg/mL (≈ 140 µM)

Question: With `CC(=O)c1cn(CC(=O)Nc2ccccc2Cl)c2ccccc12` as the compound, how does the solubility kinetic read?
Answer: 1 µg/mL (≈ 3.06 µM)

Question: With `CCC1CN(C(=O)NCc2cccc(OC)c2)c2ccccc2O1` (stereo not given) as the compound, how does the solubility kinetic read?
Answer: 43.3 µg/mL (≈ 133 µM)

Question: With `O=C(c1cc2ccccc2o1)N1CCCC1` as the compound, how does the solubility kinetic read?
Answer: > 32.3 µg/mL

Question: Which solubility kinetic does the source give for `O=C(c1ccc(F)cc1)N1CCC2(CC1)OCCO2` here?
Answer: 39.2 µg/mL (≈ 148 µM)

Question: For `CN1CCc2c(sc(NC(=O)Cc3ccc(F)cc3)c2C(N)=O)C1.Cl`, which solubility kinetic is on record?
Answer: 52.6 µg/mL

Question: For `CC(CN1CCCC1)OC(=O)Cc1ccc(Cl)cc1.Cl` (stereo not given), which solubility kinetic is on record?
Answer: > 47.7 µg/mL

Question: Which solubility kinetic does the source give for `O=C(O)C1Nc2ccc(Br)cc2C2C=CCC12` (stereo not given) here?
Answer: 43.6 µg/mL (≈ 148 µM)

Question: For `CCOc1ccc(C(=O)NCC2CCN(CC3CCCCC3)CC2)cc1`, which solubility kinetic is on record?
Answer: > 53.8 µg/mL

Question: Which solubility kinetic does the source give for `O=C(NCc1cccnc1)C(=O)Nc1nccs1` here?
Answer: 20.4 µg/mL (≈ 77.8 µM)

Question: For `CC(Oc1ccccc1Cl)C(=O)N1CCCN(C)CC1` (stereo not given), which solubility kinetic is on record?
Answer: > 44.5 µg/mL

Question: Which solubility kinetic does the source give for `CNC(=O)Nc1cccc(-c2ccnc(C)n2)c1` here?
Answer: 27.5 µg/mL (≈ 114 µM)

Question: Which solubility kinetic does the source give for `O=C(Cc1cccs1)Nc1ccc([N+](=O)[O-])cc1` here?
Answer: 39 µg/mL (≈ 149 µM)

Question: For `O=C(CC1NCCNC1=O)Nc1ccccc1` (stereo not given), which solubility kinetic is on record?
Answer: > 35 µg/mL

Question: With `COc1ccc(NC(=O)COC(=O)CNC(=O)C2CCCCC2)cc1OC` as the compound, how does the solubility kinetic read?
Answer: > 56.8 µg/mL

Question: For `CSc1ccc(Cl)c(C(=O)Nc2cc(S(=O)(=O)N3CCOCC3)ccc2N2CCOCC2)c1`, which solubility kinetic is on record?
Answer: 3.4 µg/mL (≈ 6.64 µM)

Question: For `CCc1c(C)nc(SCC(=O)N2CCCCC2)[nH]c1=O`, which solubility kinetic is on record?
Answer: > 44.3 µg/mL

Question: Which solubility kinetic does the source give for `CC(=O)Nc1ccc(S(=O)(=O)Nc2nc3ccccc3nc2Nc2ccc(C(=O)O)c(O)c2)cc1` here?
Answer: > 74 µg/mL

Question: Which solubility kinetic does the source give for `Cc1cc(NC(=O)Nc2cccc([N+](=O)[O-])c2)no1` here?
Answer: 2.2 µg/mL (≈ 8.39 µM)

Question: With `Cc1ccc(C(=O)Nc2cccc3[nH]c(C(F)(F)F)nc23)cc1` as the compound, how does the solubility kinetic read?
Answer: 3.3 µg/mL (≈ 10.3 µM)

Question: Which solubility kinetic does the source give for `COC(=O)[C@@H](C)NC(=O)c1ccc2oc(CCc3ccccc3)nc2c1` here?
Answer: 41 µg/mL (≈ 116 µM)

Question: Which solubility kinetic does the source give for `Cc1ccc(O)c(N/C=C/C(=O)c2ccc(F)cc2)c1` here?
Answer: 1.1 µg/mL (≈ 4.05 µM)

Question: Which solubility kinetic does the source give for `OCCN(CC#CCn1c2ccccc2c2ccccc21)CCO` here?
Answer: > 48.4 µg/mL

Question: With `CCCNC(=O)C12CCC(C)(c3nc4cc(C)c(C)cc4nc31)C2(C)C` (stereo not given) as the compound, how does the solubility kinetic read?
Answer: 32.2 µg/mL (≈ 91.6 µM)

Question: Which solubility kinetic does the source give for `CC(NC(=O)CN1CCN(c2cccc(Cl)c2)CC1)c1ccccc1` (stereo not given) here?
Answer: 42.4 µg/mL (≈ 118 µM)

Question: Which solubility kinetic does the source give for `CN(C)CCCNC(=O)N1c2ccccc2Sc2ccccc21` here?
Answer: > 49.1 µg/mL

Question: Which solubility kinetic does the source give for `CC(CCc1ccccc1)NC(=O)CCc1cn(C)c2ccccc12` (stereo not given) here?
Answer: 6.2 µg/mL (≈ 18.5 µM)

Question: For `Cn1cccc1C1C(C#N)=C(N)OC2=C1C(=O)CCC2` (stereo not given), which solubility kinetic is on record?
Answer: > 40.4 µg/mL

Question: With `COC(=O)c1ccccc1NC(=O)CN1CCC(C)CC1` as the compound, how does the solubility kinetic read?
Answer: 30.8 µg/mL (≈ 106 µM)

Question: With `Cc1ccc(-c2nc3ncccc3o2)cc1NC(=O)c1ccc([N+](=O)[O-])o1` as the compound, how does the solubility kinetic read?
Answer: 1.7 µg/mL (≈ 4.67 µM)

Question: With `COc1ccc(CNC(=O)Nc2cccc(Cl)c2)cc1` as the compound, how does the solubility kinetic read?
Answer: 1.1 µg/mL (≈ 3.78 µM)

Question: For `CN(C)C(=O)N1CCN(c2nc(-c3ccccc3)cs2)CC1`, which solubility kinetic is on record?
Answer: 40.3 µg/mL (≈ 127 µM)

Question: With `N#CC1CCCc2c1[nH]c1ccc([N+](=O)[O-])cc21` (stereo not given) as the compound, how does the solubility kinetic read?
Answer: 20.8 µg/mL (≈ 86.2 µM)
